Legend:
[1] = system: NCI-H460 non-small cell lung carcinoma; experiment: Antitumor effect of carboplatin with and without acetyl L-carnitine, s.c. xenograft
Experimental: Treatments started three days after cancer injection. Mice were subdivided (8 mice/group) in the following experimental groups: vehicle receiving only sterile water, carboplatin 40 mg/kg, i.p. q4d/wx3w; acetyl L-carnitine (200 mg/kg po, qdx5/wx3w)+carboplatin.
Body weight recording was carried out through the study.

[2] = system: A2780/Dx multidrug-resistant ovarian carcinoma
Experimental: A2780/Dx cancer cells were injected subcutaneously (s.c.) in the right flank of CD1 nude mice (5×10^6/100 μL/mouse). Treatments started eleven days after cancer injection.
Mice were subdivided (10 mice/group) in the following experimental groups: doxorubicin was given intravenously according to the schedule q7dx3 and acetyl-L-carnitine according to the schedule qdx5/wx3w.
Acetyl L-carnitine was administered immediately before the agent given in combination.
To evaluate the anticancer activity, tumor diameters were measured with a Vernier caliper. The formula TV (mm^3)=[length (mm)×width (mm)^2]/2 was used, where the width and the length are the shortest and the longest diameters of each cancer, respectively. Efficacy of the molecule was evaluated as tumor volume inhibition (TVI %) according to the equation: % TVI=100-[(mean cancer weight of treated mice/mean cancer weight of control group)×100]. and Log10 cell kill (LCK) calculated by the formula LCK=(T−C)/3.32×DT, where T and C were the mean times (days) required for treated (T) and control (C) tumors, respectively, to reach 1 cm^3, and DT was the doubling time of control tumors. When tumors reached a volume of about 2 cm^3, mice were sacrificed by cervical dislocation.

[3] = system: NCI-H460 non-small cell lung carcinoma; experiment: Antitumor activity of cisplatin in combination with L-carnitine, s.c. xenograft; type: in vivo; settings: L-carnitine 200 mg/kg po given chronically
Experimental: Treatments started three days after tumor injection.
To evaluate the antitumor activity, tumor diameters were measured with a Vernier caliper.
When tumors reached a volume of 1-2 cm^3, mice were sacrificed by cervical dislocation. Body weight recording was carried out through the study and mortality was noted.

[4] = system: tumour growth; settings: WO/2000/06134, cited from earlier work
[5] = system: LnCaP prostate carcinoma cells (p53 wild-type); experiment: Antiproliferative activity of cisplatin with and without acetyl L-carnitine, MTT assay; type: cell-based; settings: acetyl L-carnitine 10 mM; ≧72 h of exposure; 0.1% FBS
Experimental: (§1) Moreover, the activity was also evaluated on two prostate tumor cell lines with p53 wild-type (LnCaP) or p53 null (PC3). […] The number of surviving cells was finally determined by the tetrazolium salt (MTT) assay, as described by Hansen M B et al. (Re-examination and further development of a precise and rapid dye method for measuring cell growth/cell kill. J. Immunol. Methods 119: 203-10, 1989). […] In this case the statistical comparison was performed by Mann-Whitney test.
(§2) To test the effects of the compounds on cell growth, tumor cells were seeded in 96-well tissue culture plates at approximately 10% confluence and were allowed to attach and recover for at least 24 h. Tumor cells were exposed to compounds for 72 h or 6 days in 0.1% FBS at 37° C., then medium culture was removed and 100 μL/well of medium were added containing 25 μL/well of a solution 5 mg/mL MTT (final 1 mg/mL). Plates were kept at. 37° C. in incubator with 5% CO2 for 2 h for the formation of blu chrystals. The supernatant was removed and 100 μL/well of lysant medium were added. Plates were kept under stirring for 60 min. The survival cell was determined as optical density by a Multiskan spectrofluorimeter at 570 nm.

[6] = system: SJSA-1 (with amplification of mdm2) osteosarcoma cells; experiment: as above; type: cell-based
Experimental: as §1, §2

[7] = system: NCI-H1650 non-small cell lung carcinoma cells; experiment: as above; type: cell-based
Experimental: as §1, §2

[8] = system: lung metastases; settings: ALC 100 mg/kg/day p.o.; cited from earlier work
[9] = system: lung metastases; settings: WO/2000/06134; ALC orally 100 mg/kg; cited from earlier work
[10] = system: A2780/Dx multidrug-resistant ovarian carcinoma cells; experiment: Antiproliferative activity of cisplatin with and without acetyl L-carnitine, MTT assay; type: cell-based
Experimental: as §1
(§3) To test the effects of the compounds on cell growth, tumor cells were seeded in 96-well tissue culture plates at approximately 10% confluence and were allowed to attach and recover for at least 24 h. […] Plates were kept at. 37° C. in incubator with 5% CO2 for 2 h for the formation of blu chrystals. The supernatant was removed and 100 μL/well of lysant medium were added. Plates were kept under stirring for 60 min. The survival cell was determined as optical density by a Multiskan spectrofluorimeter at 570 nm.

[11] = system: NCI-H460 non-small cell lung carcinoma cells; experiment: as above; type: cell-based
Experimental: as §1, §3

[12] = day +31, carboplatin 40 mg/kg ip q4d/wx3w, alone or with acetyl L-carnitine 200 mg/kg po qdx5/wx3w
[13] = day +24, doxorubicin 6 mg/kg iv, alone or with acetyl L-carnitine 200 mg/kg po
[14] = acetyl L-carnitine 1 mM, same schedule and serum conditions
[15] = acetyl L-carnitine 10 mM, 72 h, medium with 10% FBS
[16] = acetyl L-carnitine 10 mM, ≧72 h of exposure, 0.1% FBS

N.N.O=C([O-])C1(C(=O)[O-])CCC1.[Pt+2] [CARBOPLATIN, Carboplatin]
LCK (1 cm^3) ([1]; Log10 cell kill, DT = 3.6 days, carboplatin 40 mg/kg ip, alone or with acetyl L-carnitine 200 mg/kg po): 0.66 | BWL % ([1]; carboplatin 40 mg/kg ip q4d/wx3w, alone or with acetyl L-carnitine 200 mg/kg po qdx5/wx3w): 1% | TV ± SE +31 [1, 12]: *704 ± 254 mm^3 | TVI % +31 [1, 12]: 48% | TVI % +31 ([1]; day +31, carboplatin 40 mg/kg ip q4d/wx3w, alone or with acetyl L-carnitine 200 mg/kg po qdx5/wx3w, listed as carboplatin): about 48% | LETHAL ([1]; dead/total mice, carboplatin 40 mg/kg ip q4d/wx3w, alone or with acetyl L-carnitine 200 mg/kg po qdx5/wx3w): 0/8

COc1cccc2c1C(=O)c1c(O)c3c(c(O)c1C2=O)C[C@@](O)(C(=O)CO)C[C@@H]3O[C@H]1C[C@H](N)[C@H](O)[C@H](C)O1 [Doxorubicin, doxorubicin]
LCK (1 cm^3) ([2]; DT = 2.9 days, doxorubicin 6 mg/kg iv, alone or with acetyl L-carnitine 200 mg/kg po): 0.7 | TV ± SE +24 [2, 13]: 1059 ± 195 mm^3 | TVI % ± SE +24 [2, 13]: **60 ± 11% | Leth. ([2]; dead/total mice, doxorubicin 6 mg/kg iv, alone or with acetyl L-carnitine 200 mg/kg po): 0/10 | BWL % max ([2]; doxorubicin 6 mg/kg iv q7dx3, alone or with acetyl L-carnitine 200 mg/kg po qdx5/wx3w): 0%

C[N+](C)(C)C[C@H](O)CC(=O)[O-] [L-carnitine]
potentiation of the cytotoxic activity of cisplatin [3]: not able to potentiate the cytotoxic activity of cisplatin

CC(=O)O[C@H]1C(=O)[C@@]2(C)[C@H]([C@H](OC(=O)c3ccccc3)[C@]3(O)C[C@H](OC(=O)[C@H](O)[C@@H](NC(=O)c4ccccc4)c4ccccc4)C(C)=C1C3(C)C)[C@]1(OC(C)=O)CO[C@@H]1C[C@@H]2O [Paclitaxel]
TVI ([4]; ALC orally 100 mg/kg where combined): 88%

CC(=O)O[C@H](CC(=O)[O-])C[N+](C)(C)C [acetyl L-carnitine]
potentiation of the cytotoxic activity of cisplatin [5]: able to potentiate the cytotoxic activity of cisplatin | potentiation of the cytotoxic activity of cisplatin [6, 14]: ineffective | potentiation of the cytotoxic activity of cisplatin [6, 15]: failed to increase cisplatin anti-proliferative activity | potentiation of the cytotoxic activity of cisplatin ([6]; acetyl L-carnitine 10 mM, 72 h of exposure, 0.1% FBS): able to potentiate the cytotoxic activity of cisplatin | potentiation of the cytotoxic activity of cisplatin [7, 14]: ineffective | potentiation of the cytotoxic activity of cisplatin [7, 15]: failed to increase cisplatin anti-proliferative activity | potentiation of the cytotoxic activity of cisplatin [7, 16]: able to potentiate the cytotoxic activity of cisplatin | protection from toxicity of the antitumor drug [8]: protects the mice from the lethal toxicity and from the neurotoxicity | effect on tumour growth ([4]; ALC orally 100 mg/kg): no effect on tumour growth | effect on the formation of lung metastases [9]: significant inhibitory effect on the formation of lung metastases | potentiation of the cytotoxic activity of cisplatin [10, 14]: ineffective | potentiation of the cytotoxic activity of cisplatin [10, 15]: failed to increase cisplatin anti-proliferative activity | potentiation of the cytotoxic activity of cisplatin [10, 16]: able to potentiate the cytotoxic activity of cisplatin | potentiation of the cytotoxic activity of cisplatin [11, 14]: ineffective | potentiation of the cytotoxic activity of cisplatin [11, 15]: failed to increase cisplatin anti-proliferative activity | potentiation of the cytotoxic activity of cisplatin [11, 16]: able to potentiate the cytotoxic activity of cisplatin

From US20120093809A1, “USE OF ALKANOYL L-CARNITINE IN COMBINATION WITH CHEMOTHERAPEUTIC AGENTS FOR THE TREATMENT OF NEOPLASMS” (priority 2008, published 2012)
